Usually Ki stands for the equilibrium dissociation constant of an inhibitor or competing ligand from its target. What is called EC50 is the concentration giving half of the maximal effect. The IC50 is the concentration at which inhibition is half-maximal.

The source of these data is ChEMBL document CHEMBL1136098, “Semisynthetic preparation of amentoflavone: A negative modulator at GABA(A) receptors” (Bioorg Med Chem Lett, 2003).

The target in experiment [1] is GABA-A receptor; anion channel. The experiment in a line: Binding affinity for GABA-A benzodiazepine receptor. It counts as protein-complex assay.
Experiment [2] concerns the target Delta-type opioid receptor (Sus scrofa, UniProt P79291). The experiment in a line: Binding affinity (in vitro) against Opioid receptor delta 1 using radio-ligand binding assay.
Experiment [3] addresses T1, GABA-A receptor; alpha-1/beta-2/gamma-2 (Homo sapiens, UniProt P14867+P18507+P47870).
T1 sequence (P14867 whole entry): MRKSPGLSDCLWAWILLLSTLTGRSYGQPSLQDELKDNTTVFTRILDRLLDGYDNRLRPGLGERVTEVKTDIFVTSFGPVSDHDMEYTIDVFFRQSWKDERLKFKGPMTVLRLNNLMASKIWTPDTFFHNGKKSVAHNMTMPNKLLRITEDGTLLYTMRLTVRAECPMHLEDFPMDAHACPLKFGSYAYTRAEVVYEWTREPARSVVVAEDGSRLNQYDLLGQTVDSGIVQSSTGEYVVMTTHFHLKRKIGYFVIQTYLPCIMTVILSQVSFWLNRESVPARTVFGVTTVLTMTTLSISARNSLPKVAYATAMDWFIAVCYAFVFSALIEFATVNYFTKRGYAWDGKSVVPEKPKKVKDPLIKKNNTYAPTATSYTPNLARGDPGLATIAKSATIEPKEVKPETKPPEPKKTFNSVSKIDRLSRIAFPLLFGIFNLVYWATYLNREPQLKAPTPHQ
T1 sequence (P47870 whole entry): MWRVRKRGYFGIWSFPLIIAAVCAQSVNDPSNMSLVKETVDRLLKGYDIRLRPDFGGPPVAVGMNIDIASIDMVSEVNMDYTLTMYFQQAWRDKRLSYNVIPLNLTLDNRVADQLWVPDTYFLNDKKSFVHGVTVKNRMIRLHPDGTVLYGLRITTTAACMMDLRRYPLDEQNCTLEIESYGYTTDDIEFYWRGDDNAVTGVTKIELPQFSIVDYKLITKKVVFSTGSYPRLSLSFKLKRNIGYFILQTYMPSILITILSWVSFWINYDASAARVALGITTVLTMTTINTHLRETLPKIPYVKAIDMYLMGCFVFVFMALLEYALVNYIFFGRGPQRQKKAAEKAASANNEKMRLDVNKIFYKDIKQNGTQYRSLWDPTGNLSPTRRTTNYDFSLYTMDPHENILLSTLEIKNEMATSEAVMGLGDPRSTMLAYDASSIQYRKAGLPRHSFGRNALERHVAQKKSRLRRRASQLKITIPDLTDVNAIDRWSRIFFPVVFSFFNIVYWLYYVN
T1 sequence (P18507 whole entry): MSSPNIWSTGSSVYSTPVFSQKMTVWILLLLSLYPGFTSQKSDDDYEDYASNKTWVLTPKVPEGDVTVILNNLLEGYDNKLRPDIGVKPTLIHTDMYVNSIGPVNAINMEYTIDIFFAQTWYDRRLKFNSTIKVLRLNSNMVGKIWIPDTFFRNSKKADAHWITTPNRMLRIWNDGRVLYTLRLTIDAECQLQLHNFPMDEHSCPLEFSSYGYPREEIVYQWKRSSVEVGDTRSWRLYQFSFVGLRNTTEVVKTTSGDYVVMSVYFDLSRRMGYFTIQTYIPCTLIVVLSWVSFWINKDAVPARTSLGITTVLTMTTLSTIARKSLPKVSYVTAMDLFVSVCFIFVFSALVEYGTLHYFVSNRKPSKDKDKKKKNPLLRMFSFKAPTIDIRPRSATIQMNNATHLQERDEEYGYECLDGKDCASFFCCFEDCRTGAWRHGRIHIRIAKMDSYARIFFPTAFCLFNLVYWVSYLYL
The experiment is described as follows: Effective concentration against human recombinant GABA-A receptor alpha-1-beta-2-gamma-2 subunits expressed in Xenopus oocytes. It is filed as cell-based, Oocyte.

In experiment [4] the target is GABA-A receptor; anion channel. The experiment in a line: Binding affinity for human cloned GABA-A benzodiazepine receptor. It counts as protein-complex assay.
Experiment [5] concerns the target GABA-A receptor; anion channel. The experiment in a line: Inhibition of [3H]flunitrazepam binding to rat brain GABA-A benzodiazepine receptor.
In experiment [6] the target is 5-hydroxytryptamine receptor 1D (Sus scrofa, UniProt P79400). The experiment in a line: Binding affinity (in vitro) against 5-hydroxytryptamine 1D receptor alpha using radio-ligand binding assay.
Chain of 5-hydroxytryptamine receptor 1D (P79400 whole entry): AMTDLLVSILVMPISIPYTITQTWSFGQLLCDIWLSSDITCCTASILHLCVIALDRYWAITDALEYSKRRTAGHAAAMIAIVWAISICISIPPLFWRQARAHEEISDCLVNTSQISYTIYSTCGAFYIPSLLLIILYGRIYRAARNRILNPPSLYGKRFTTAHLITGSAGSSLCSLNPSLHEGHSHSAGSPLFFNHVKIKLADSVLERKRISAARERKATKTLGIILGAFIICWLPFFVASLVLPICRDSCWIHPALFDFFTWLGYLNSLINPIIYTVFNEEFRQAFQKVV
Experiment [7] concerns the target D(3) dopamine receptor (Homo sapiens, UniProt P35462). The experiment in a line: Binding affinity (in vitro) against Dopamine receptor D3 using radio-ligand binding assay. Also noted: species or system Sus scrofa.

Molecules are shown by their SMILES.

Chain of D(3) dopamine receptor (P35462 whole entry): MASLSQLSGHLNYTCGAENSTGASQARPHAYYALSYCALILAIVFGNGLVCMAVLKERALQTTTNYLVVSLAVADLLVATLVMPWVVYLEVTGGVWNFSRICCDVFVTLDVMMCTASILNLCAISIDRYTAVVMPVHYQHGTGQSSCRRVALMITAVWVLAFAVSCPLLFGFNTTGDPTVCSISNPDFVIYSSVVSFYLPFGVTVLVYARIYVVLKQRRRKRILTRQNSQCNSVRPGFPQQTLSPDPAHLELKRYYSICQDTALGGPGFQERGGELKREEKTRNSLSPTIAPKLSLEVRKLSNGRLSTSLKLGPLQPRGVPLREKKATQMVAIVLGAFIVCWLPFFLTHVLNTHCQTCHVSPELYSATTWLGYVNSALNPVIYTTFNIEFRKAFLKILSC
Chain of Delta-type opioid receptor (P79291 whole entry): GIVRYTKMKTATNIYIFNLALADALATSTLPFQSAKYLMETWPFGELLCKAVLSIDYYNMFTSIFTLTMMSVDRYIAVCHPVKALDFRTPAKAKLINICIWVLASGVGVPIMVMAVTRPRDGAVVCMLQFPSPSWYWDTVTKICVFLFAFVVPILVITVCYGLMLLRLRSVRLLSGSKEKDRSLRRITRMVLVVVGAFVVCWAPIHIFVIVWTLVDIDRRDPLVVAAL

With `O=c1cc(-c2ccc(O)c(-c3c(O)cc(O)c4c(=O)cc(-c5ccc(O)cc5)oc34)c2)oc2cc(O)cc(O)c12` [AMENTOFLAVONE], the inhibition constant (Ki) came out at 6 nM in experiment [1]; 36.5 nM in experiment [2]; 6 nM in experiment [4]; 4090 nM in experiment [6]; 1240 nM in experiment [7]. Moreover, the EC50 in experiment [3] was 3600 nM. This compound yielded an IC50 in experiment [5] of 14.9 nM.
